Source: PubChem BioAssay AID1259407 (Chemical Carcinogenesis Research Information System (CCRIS), 2018)
Activity calls are given as the source filed them. No rule for the calls is given here.

Test system: CCRIS mutagenicity, Ames/micronucleus/aberration tests
Assay: CCRIS mutagenicity studies
[1] = Test System: AMES SALMONELLA TYPHIMURIUM, Strain/Indicator: TA98, Metabolic Activation: NONE, Method: STANDARD PLATE
[2] = Test System: AMES SALMONELLA TYPHIMURIUM, Strain/Indicator: TA98, Metabolic Activation: RAT, LIVER, S-9, AROCLOR 1254, Method: STANDARD PLATE
[3] = Test System: AMES SALMONELLA TYPHIMURIUM, Strain/Indicator: TA100, Metabolic Activation: NONE, Method: STANDARD PLATE
[4] = Test System: AMES SALMONELLA TYPHIMURIUM, Strain/Indicator: TA100, Metabolic Activation: RAT, LIVER, S-9, AROCLOR 1254, Method: STANDARD PLATE
[5] = Test System: AMES SALMONELLA TYPHIMURIUM, Strain/Indicator: TA1535, Metabolic Activation: NONE, Method: STANDARD PLATE
[6] = Test System: AMES SALMONELLA TYPHIMURIUM, Strain/Indicator: TA1537, Metabolic Activation: NONE, Method: STANDARD PLATE
[7] = Test System: AMES SALMONELLA TYPHIMURIUM, Strain/Indicator: TA1538, Metabolic Activation: NONE, Method: STANDARD PLATE
[8] = Test System: AMES SALMONELLA TYPHIMURIUM, Strain/Indicator: TA98, Metabolic Activation: S-9, Method: STANDARD PLATE
[9] = Test System: AMES SALMONELLA TYPHIMURIUM, Strain/Indicator: TA100, Metabolic Activation: S-9, Method: STANDARD PLATE
[10] = Test System: AMES SALMONELLA TYPHIMURIUM, Strain/Indicator: TA100, Metabolic Activation: NONE, Method: PREINCUBATION
[11] = Test System: AMES SALMONELLA TYPHIMURIUM, Strain/Indicator: TA98, Metabolic Activation: NONE, Method: PREINCUBATION
[12] = Test System: AMES SALMONELLA TYPHIMURIUM, Strain/Indicator: TA1535, Metabolic Activation: NONE, Method: PREINCUBATION

`CC(C)N(C(=O)SCC(Cl)=C(Cl)Cl)C(C)C` was tested, and the mutagenic call [1] was “inactive; negative”, the mutagenic call [2] was “active; positive” and the mutagenic call [3] was “inactive; negative”. The mutagenic call [4] was “active; positive”, the mutagenic call [5] was “inactive; negative” and the mutagenic call (Test System: AMES SALMONELLA TYPHIMURIUM, Strain/Indicator: TA1535, Metabolic Activation: RAT, LIVER, S-9, AROCLOR 1254, Method: STANDARD PLATE) was “active; positive”. For the same compound, the mutagenic call [6] was “inactive; negative”, the mutagenic call (Test System: AMES SALMONELLA TYPHIMURIUM, Strain/Indicator: TA1537, Metabolic Activation: RAT, LIVER, S-9, AROCLOR 1254, Method: STANDARD PLATE) was “inactive; negative” and the mutagenic call [7] was “inactive; negative”. For the same compound, the mutagenic call (Test System: AMES SALMONELLA TYPHIMURIUM, Strain/Indicator: TA1538, Metabolic Activation: RAT, LIVER, S-9, AROCLOR 1254, Method: STANDARD PLATE) was “inactive; negative”.
For `Oc1cc(O)c2c(c1)O[C@H](c1ccc(O)c(O)c1)[C@@H](O)C2`, the mutagenic call (Test System: Ames Salmonella typhimurium, Strain/Indicator: TA102, Metabolic Activation: None, Method: Preincubation) was “inactive; negative” and the mutagenic call (Test System: Ames Salmonella typhimurium, Strain/Indicator: TA102, Metabolic Activation: Rat, Liver, S-9, Aroclor 1254 in 0.154 M KCl, Method: Preincubation) was “inactive; negative”.
`OCc1cc2ccc3cccnc3c2[nH]1` was tested, and the mutagenic call [1] was “inactive; negative” and the mutagenic call (Test System: E. COLI, Strain/Indicator: WP2 TM9, Metabolic Activation: NONE, Method: STANDARD PLATE) was “inactive; negative”.
With `OC1=c2c(O)cc3cccc4ccc(c2c43)C23CCCCC12O3` (configuration not stated) the mutagenic call (Test System: CHINESE HAMSTER V-79, Strain/Indicator: V-79/8-AZAGUANINE, Metabolic Activation: NONE, Method: STANDARD PLATE) was “active; positive”.
For `BrCc1ccccc1CBr`, the mutagenic call [1] was “inactive; negative” and the mutagenic call [3] was “inactive; negative”.
With `C1CSCCS1` the mutagenic call [2] was “inactive; negative”, the mutagenic call [8] was “inactive; negative” and the mutagenic call [4] was “inactive; negative”. For the same compound, the mutagenic call [9] was “inactive; negative”, the mutagenic call [5] was “inactive; negative” and the mutagenic call (Test System: AMES SALMONELLA TYPHIMURIUM, Strain/Indicator: TA1535, Metabolic Activation: S-9, Method: STANDARD PLATE) was “inactive; negative”. The mutagenic call [6] was “inactive; negative”, the mutagenic call (Test System: AMES SALMONELLA TYPHIMURIUM, Strain/Indicator: TA1537, Metabolic Activation: S-9, Method: STANDARD PLATE) was “inactive; negative” and the mutagenic call [7] was “inactive; negative”. The mutagenic call (Test System: AMES SALMONELLA TYPHIMURIUM, Strain/Indicator: TA1538, Metabolic Activation: S-9, Method: STANDARD PLATE) was “inactive; negative”.
With `N#Cc1cccc(/C=C/c2ccc([N+](=O)[O-])cc2)c1` the mutagenic call (Test System: AMES SALMONELLA TYPHIMURIUM, Strain/Indicator: TA98(NR), Metabolic Activation: NONE, Method: STANDARD PLATE) was “active; positive”, the mutagenic call (Test System: AMES SALMONELLA TYPHIMURIUM, Strain/Indicator: TA98 (NR), Metabolic Activation: S-9, Method: STANDARD PLATE) was “active; positive” and the mutagenic call [1] was “active; positive”. For the same compound, the mutagenic call [8] was “active; positive”, the mutagenic call (Test System: AMES SALMONELLA TYPHIMURIUM, Strain/Indicator: TA100 (NR), Metabolic Activation: NONE, Method: STANDARD PLATE) was “inactive; negative” and the mutagenic call (Test System: AMES SALMONELLA TYPHIMURIUM, Strain/Indicator: TA100(NR), Metabolic Activation: S-9, Method: STANDARD PLATE) was “inactive; negative”. For the same compound, the mutagenic call [3] was “active; positive” and the mutagenic call [9] was “active; positive”.
`COC(=O)[C@@H](C)Cl` was tested, and the mutagenic call [10] was “active; positive” and the mutagenic call (Test System: AMES SALMONELLA TYPHIMURIUM, Strain/Indicator: TA100, Metabolic Activation: RAT, LIVER, S-9, PCB, Method: PREINCUBATION) was “active; positive”.
For `CN(C)c1ccc(N=O)cc1`, the mutagenic call (Test System: AMES SALMONELLA TYPHIMURIUM, Strain/Indicator: TA100, Metabolic Activation: NONE, Method: FLUCTUATION TEST) was “active; positive”.
For `CCC(C)OC(=O)C=Cc1ccc([N+](=O)[O-])o1` (configuration not stated), the mutagenic call [11] was “active; positive”.
`O=C(S)c1ccccc1` was tested, and the mutagenic call [11] was “inactive; negative”, the mutagenic call (Test System: AMES SALMONELLA TYPHIMURIUM, Strain/Indicator: TA98, Metabolic Activation: RAT LIVER S-9, PHENOBARBITAL AND BETA-NAPHTHOFLAVONE, Method: PREINCUBATION) was “inactive; negative” and the mutagenic call [10] was “inactive; negative”. The mutagenic call (Test System: AMES SALMONELLA TYPHIMURIUM, Strain/Indicator: TA100, Metabolic Activation: RAT LIVER S-9, PHENOBARBITAL AND BETA-NAPHTHOFLAVONE, Method: PREINCUBATION) was “inactive; negative”, the mutagenic call (Test System: AMES SALMONELLA TYPHIMURIUM, Strain/Indicator: TA102, Metabolic Activation: NONE, Method: PREINCUBATION) was “inactive; negative” and the mutagenic call (Test System: AMES SALMONELLA TYPHIMURIUM, Strain/Indicator: TA102, Metabolic Activation: RAT LIVER S-9, PHENOBARBITAL AND BETA-NAPHTHOFLAVONE, Method: PREINCUBATION) was “inactive; negative”. The mutagenic call (Test System: AMES SALMONELLA TYPHIMURIUM, Strain/Indicator: TA104, Metabolic Activation: NONE, Method: PREINCUBATION) was “inactive; negative”, the mutagenic call (Test System: AMES SALMONELLA TYPHIMURIUM, Strain/Indicator: TA104, Metabolic Activation: RAT LIVER S-9, PHENOBARBITAL AND BETA-NAPHTHOFLAVONE, Method: PREINCUBATION) was “inactive; negative” and the mutagenic call [12] was “inactive; negative”. The mutagenic call (Test System: AMES SALMONELLA TYPHIMURIUM, Strain/Indicator: TA1535, Metabolic Activation: RAT LIVER S-9, PHENOBARBITAL AND BETA-NAPHTHOFLAVONE, Method: PREINCUBATION) was “inactive; negative”, the mutagenic call (Test System: AMES SALMONELLA TYPHIMURIUM, Strain/Indicator: TA1537, Metabolic Activation: NONE, Method: PREINCUBATION) was “inactive; negative” and the mutagenic call (Test System: AMES SALMONELLA TYPHIMURIUM, Strain/Indicator: TA1537, Metabolic Activation: RAT LIVER S-9, PHENOBARBITAL AND BETA-NAPHTHOFLAVONE, Method: PREINCUBATION) was “inactive; negative”. For the same compound, the mutagenic call (Test System: E.COLI, Strain/Indicator: WP2UVRA/PKM101, Metabolic Activation: NONE, Method: PREINCUBATION) was “inactive; negative”, the mutagenic call (Test System: E.COLI, Strain/Indicator: WP2UVRA/PKM101, Metabolic Activation: RAT LIVER S-9, PHENOBARBITAL AND BETA-NAPHTHOFLAVONE, Method: PREINCUBATION) was “inactive; negative” and the mutagenic call (Test System: E.COLI, Strain/Indicator: WP2UVRA, Metabolic Activation: NONE, Method: PREINCUBATION) was “inactive; negative”. The mutagenic call (Test System: E.COLI, Strain/Indicator: WP2UVRA, Metabolic Activation: RAT LIVER S-9, PHENOBARBITAL AND BETA-NAPHTHOFLAVONE, Method: PREINCUBATION) was “inactive; negative”.
For `CC(=O)CC1CCC(=O)CCC(=O)OC(CC(C)=O)CCC(O)CCC(=O)O1` (configuration not stated), the mutagenic call (Test System: CHINESE HAMSTER V-79, Strain/Indicator: V-79 (HPRT)/6-THIOGUANINE, Metabolic Activation: NONE) was “inactive; negative”.
With `COc1cc2c(c3ccc4ccccc4c13)CCC2=O` the mutagenic call [4] was “active; positive”.
In the case of `CC(C)OS(C)(=O)=O`, the mutagenic call (End Point: IN VITRO MICRONUCLEUS, Test System: MOUSE LYMPHOMA L5178Y CELLS, Metabolic Activation: NONE) is reported as “active; positive”, the mutagenic call (End Point: IN VITRO MICRONUCLEUS, Test System: MOUSE LYMPHOMA L5178Y CELLS, Metabolic Activation: RAT, LIVER, S-9) is reported as “active; positive” and the mutagenic call [1] is reported as “active; positive”. The mutagenic call (Test System: AMES SALMONELLA TYPHIMURIUM, Strain/Indicator: TA98, Metabolic Activation: RAT, LIVER, S-9, Method: STANDARD PLATE) was “inactive; negative”, the mutagenic call [10] was “active; positive” and the mutagenic call [3] was “active; positive”. The mutagenic call (Test System: AMES SALMONELLA TYPHIMURIUM, Strain/Indicator: TA100, Metabolic Activation: RAT, LIVER, S-9, Method: STANDARD PLATE) was “active; positive”, the mutagenic call [12] was “active; positive” and the mutagenic call (Test System: CHINESE HAMSTER V-79, Strain/Indicator: V-79/6-THIOGUANINE, Metabolic Activation: NONE, Method: FLASK ASSAY) was “active; positive”. For the same compound, the mutagenic call (Test System: CHO/HGPRT, Strain/Indicator: CHO-K1-BH4, Metabolic Activation: NONE, Method: STANDARD PLATE) was “active; positive”.
